Reference: patent publication US9868784B2, “Antibodies against the S100P protein for the treatment and diagnosis of cancer” (LYKERA BIOMED SA, priority 2011, dated 2018)
Values joined by “and” are separate entries in the source; they are usually repeats but may differ in a detail not shown here. Equal values may be shown once.

Assays:
[1] = tested on: human pancreatic BxPC3 tumors; test: Orthotopic BxPC3-luc pancreatic tumor model, tumor progression and metastases (TMPN score, bioluminescence); assay type: in vivo, nude mice; parameters: key to Nodes score / Tumor score / Organ Metastases, Liver score / Organ Metastases, Lung score / Peritoneal Metastases, Diaphragm score / Peritoneal Metastases, Kidney score / Peritoneal Metastases, Adrenals score / Peritoneal Metastases, Intestine score / Peritoneal Metastases, Peritoneum score: TMPN category scores per Table 2 (modified Hennig 2005); key to Total Score: product of T, M, P and N scores per animal; details: individual animal, end of experiment
Protocol: The antitumorigenic and antimetastatic capability of the monoclonal antibodies 3F8 and 2H8 against S100P was assessed in an orthotopic tumor model using the human adenopancreatic BxPC3 tumor cell line stably expressing a lentiviral luciferase reporter gene.
BxPC3-luc cell line in exponential growth were harvested with trypsin-EDTA (0.05%/0.02%) (Invitrogen), washed, and examined for viability by trypan blue dye exclusion. Viability was greater than 95%. For primary tumor growth, cells (5×105 in 0.1 mL DMEM high glucose) were injected into the pancreas of 5 nude mice.
Four weeks after cell injection, when tumors became established (300-350 mm3), two animals were killed, tumors were obtained, sliced in 5 mm3 pieces approximately and implanted in 15 new mice. Mice were divided into 3 groups of five animals each one.
Tumor growth and metastasis were followed by bioluminescent imaging, palpation of animals and the examination of endpoint criteria of treated animals (occurrence of ascitic fluid and body weight loss).
Mice were treated either with cromolyn (reference compound that is known to bind to S100P and block its extracellular activity, Arumugam T. et al. 2006. J. Natl. Cancer Inst. 98(24):1806-18), daily (5 mg/Kg body weight by ip injection) or with our antibodies against S100P (3F8 and 2H8), three times per week at 25 mg/Kg by ip injection, starting the treatment 24 hours after tumor implantation. At the end of the experiment (treatment of 30 days) animals were killed, pancreatic tumors were surgically removed, weighted and an staging and scoring system of peritoneal tumors, pancreatic tumors, lymph node metastases, organ metastases, and ascites was developed and recorded according to our TMPN scoring system (Table 2) modified from Hennig R. et al. 2005. Neoplasia, 7(4):417-425 to evaluate tumor progression. Scores from each category were multiplied with each other because patterns in medicine follow multiplicative, rather than additive, rules.
Scores for the primary tumor (T), organ metastases (M), peritoneal metastases (P), and lymph node metastases (N) were multiplied to calculate the total tumor score for each animal. Score P4 value is the sum of the corresponding P0, P1, P2, P3 (P0/1/2/3) plus an additional value of 3 for metastasis presence in the diaphragm, 3 for kidney, 3 for intestine and 3 for adrenal glands.
Bioluminescence imaging was conducted using a cryogenically cooled IVIS 100 imaging system coupled to a data acquisition computer running Living Image Software (Xenogen Corp). Before imaging, mice were placed in an acrylic chamber anesthetized with 2.5% isofluorane-air mixture, and injected intraperitoneally with 15 mg/mL of luciferin potassium salt in PBS at a dose of 150 mg/Kg body weight. At the end of experiment, after the primary tumors were removed, cancer cell dissemination and metastasis were visualized using IVIS imaging, and metastatic colonies were counted and measured (photons/second).
Comparisons between groups were made using the Kruskall-Wallis ANOVA on ranks as a nonparametric test. Differences for which P value was less than 0.05 were considered statistically significant.

[2] = tested on: HT1080 human fibrosarcoma cell line; test: HT1080 cell survival by MTT method
Protocol: Briefly, HT1080 cells (1×10^4 cells/well) were plated onto 96-well cell culture plates in 50 μl of DMEM medium. Twenty-for hours later, 50 μl of medium with doxorubicin (240 nM or 1 μM) alone or in combination with either S100P or S100P combined with the antibodies (see FIG. 6) were added to each well and were cultured for 72 hours. Then 10 μl of a MTT solution (5 mg/ml PBS) was added to each well and after 4 hours cells were lysed, formazan product was solubilised with 100 μl of extraction buffer (15% SDS in 50% N,N-dimethylformamide pH 4.7) and colorimetric result was measured at 570 nm using a multi-well scanning spectrophotometer 5 hours after solubilization.

[3] = tested on: BxPC3 pancreatic adenocarcinoma tumor cells; test: Proliferation of BxPC3 tumor cells induced by S100P; assay type: cell-based, human; details: S100P 100 nM, 48 hours
Protocol: The proliferation studies on the BxPC3 line were analyzed using the Cell Proliferation ELISA Biotrak™ System kit (GE Healthcare) following the manufacturer's instructions with some modifications. Three thousand cells were seeded in 50 μl of RPMI 1640 culture medium supplemented with 3% FCS in each well. The recombinant S100P protein (100 nM) alone or in combination with the antibodies was added to the cells in the same seeding medium to test the proliferative or inhibitory capacity thereof, respectively. To test the inhibitory effect of the 5D7, 4B12, 3E3, 7F1, 9F3, 6F1, 1A5, 3F8 and 2H8 monoclonal antibodies, a concentration of 500 nM of each antibody was incubated for 2 hours at 37° C. with the recombinant S100P protein before being added to the culture. After 48 hours at 37° C., the proliferation was determined. The two-tailed Mann-Whitney nonparametric test was used to compare the groups. A p value <0.05 was taken for the values to be statistically significant.

O=C(O)c1cc(=O)c2c(OCC(O)COc3cccc4oc(C(=O)O)cc(=O)c34)cccc2o1 [Cromolyn, cromolyn]
Total Score ([1]; T x M x P x N scores multiplied): 2600 and 1000 (2×) and 1300 and 1750 (2×)
Tumor score ([1]; TMPN score (Table 2), 30 days treatment, antibodies 25 mg/Kg ip three times per week, cromolyn 5 mg/Kg ip daily): 4 (4×) and 5 (2×)
Nodes score ([1]; TMPN score): 5
Organ Metastases, Liver score ([1]; TMPN score): 5
Organ Metastases, Lung score ([1]; TMPN score): 5 and 0 (5×)
Peritoneal Metastases, Adrenals score ([1]; TMPN score): 3 and 0 (5×)
Peritoneal Metastases, Diaphragm score ([1]; TMPN score): 0 and 3 (5×)
Peritoneal Metastases, Intestine score ([1]; TMPN score): 3
Peritoneal Metastases, Kidney score ([1]; TMPN score): 3 (4×) and 0 (2×)
Peritoneal Metastases, Peritoneum score ([1]; TMPN score): 4 (4×) and 5 (2×)

COc1cccc2c1C(=O)c1c(O)c3c(c(O)c1C2=O)C[C@@](O)(C(=O)CO)C[C@@H]3O[C@H]1C[C@H](N)[C@H](O)[C@H](C)O1 [Doxorubicin, doxorubicin]
IC50 ([2]; Homo sapiens, HT-1080, 72 h): 240 nM
EC50 ([2]; Homo sapiens, HT-1080, read-out: Toxicity EC50): 240 nM

B1: S100P: human recombinant S100P protein (SEQ ID NO: 2) expressed in E. coli, used as stimulus (protein)
chain: GSHMTELETAMGMIIDVFSRYSGSEGSTQTLTKGELKVLMEKELPGFLQSGKDKDAVDKLLKDLDANGDAQVDFSEFIVFVAAITSACHKYFEKAGLK
modifications: Human
proliferation increase compared to cells not treated with S100P [3]: ~80%
increase of growing respect to the non treated HT1080 cells ([2]; S100P 500 nM, doxorubicin 240 nM, 72 h): approximately 40%
